According to BindingDB's records for doi:10.1021/jm00163a034 (Eisai, 1990):
Square brackets hold non-standard residues; d marks the D form. Peptide text beside a SMILES is read from it. Phe(4-NO2) = N[CH](Cc1ccc([N+](=O)[O-])cc1)C(=O)O; NMeY = CN[CH](Cc1ccc(O)cc1)C(=O)O; Sar = CNCC(=O)O

Experiments:
[1] = Evaluated for inhibitory activity against Opioid receptor kappa 1 of rabbit vas deferens (RVD)
[2] = Binding affinities against Opioid receptor delta 1 of guinea pig brain membrane using [3H]DPDPE as the radioligand using competition binding assays.
[3] = Binding affinities against Opioid receptor kappa 1 of guinea pig brain membrane using [3H]U69,593 as the radioligand using competition binding assays.

Structure (SMILES) | IC50 [1] | Ki [2] | Ki [3]
CN[C@@H](Cc1ccc(O)cc1)C(=O)NCC(=O)NNC(=O)N[C@@H](Cc1ccccc1)C(=O)N[C@@H](CC(C)C)C(=O)N[C@@H](CCCNC(=N)N)C(=O)N[C@@H](CCCNC(=N)N)C(=O)N[C@H](CC(C)C)C(N)=O | 152 nM |  | 
CC[C@H](C)[C@H](NC(=O)[C@H](CCCNC(=N)N)NC(=O)[C@H](CCCNC(=N)N)NC(=O)[C@H](CC(C)C)NC(=O)[C@H](Cc1ccccc1)NC(=O)CNC(=O)CNC(=O)[C@@H](N)Cc1ccc(O)cc1)C(N)=O [2-[2-(2-{2-[2-(2-{2-[2-Amino-3-(4-hydroxy-phenyl)-propionylamino]-acetylamino}-acetylamino)-3-phenyl-propionylamino]-4-methyl-pentanoylamino}-5-guanidino-pentanoylamino)-5-guanidino-pentanoylamino]-3-methyl-pentanoic acid amide] | 17 nM | 24 nM | 1.2 nM
CCNC(=O)[C@@H](CC(C)C)NC(=O)[C@H](CCCNC(=N)N)N(C)C(=O)[C@H](CCCNC(=N)N)NC(=O)[C@H](CC(C)C)NC(=O)[C@H](Cc1ccccc1)NC(=O)CNC(=O)CNC(=O)[C@H](Cc1ccc(O)cc1)NC [2-[2-(2-{2-[3-(4-Hydroxy-phenyl)-2-methylamino-propionylamino]-acetylamino}-acetylamino)-3-phenyl-propionylamino]-4-methyl-pentanoic acid (1-{[1-(1-ethylcarbamoyl-3-methyl-butylcarbamoyl)-4-guanidino-butyl]-methyl-carbamoyl}-4-guanidino-butyl)-amide] | 2.6 nM | 27 nM | 1.9 nM
CNC(Cc1ccc(O)cc1)C(=O)NCC(=O)NCC(=O)NC(Cc1ccc([N+](=O)[O-])cc1)C(=O)NC(CC(C)C)C(=O)NC(CCCNC(=N)N)C(=O)NC(CCCNC(=N)N)C(=O)NC(CC(C)C)C(N)=O (centres undefined) [2-[5-Guanidino-2-(5-guanidino-2-{2-[2-(2-{2-[3-(4-hydroxy-phenyl)-2-methylamino-propionylamino]-acetylamino}-acetylamino)-3-(4-nitro-phenyl)-propionylamino]-4-methyl-pentanoylamino}-pentanoylamino)-pentanoylamino]-4-methyl-pentanoic acid amide] (H-[NMeY]GG[Phe(4-NO2)]LRRL-NH2; configuration not given here) |  | 29 nM | 0.77 nM
CN[C@@H](Cc1ccc(O)cc1)C(=O)NCC(=O)NCC(=O)N[C@@H](Cc1ccccc1)C(=O)N[C@H](C)C(=O)N[C@@H](CCCNC(=N)N)C(=O)N[C@@H](CCCNC(=N)N)C(=O)N[C@H](CC(C)C)C(N)=O [2-[5-Guanidino-2-(5-guanidino-2-{2-[2-(2-{2-[3-(4-hydroxy-phenyl)-2-methylamino-propionylamino]-acetylamino}-acetylamino)-3-phenyl-propionylamino]-propionylamino}-pentanoylamino)-pentanoylamino]-4-methyl-pentanoic acid amide] | 13000 nM |  | 
CC(C)C[C@H](NC(=O)[C@H](CCCNC(=N)N)NC(=O)[C@H](CCCNC(=N)N)NC(=O)[C@H](CC(C)C)NC(=O)[C@H](Cc1ccccc1)NC(=O)CNC(=O)CN(C)C(=O)[C@@H](N)Cc1ccc(O)cc1)C(N)=O [2-{2-[2-(2-{2-[2-(2-{[2-Amino-3-(4-hydroxy-phenyl)-propionyl]-methyl-amino}-acetylamino)-acetylamino]-3-phenyl-propionylamino}-4-methyl-pentanoylamino)-5-guanidino-pentanoylamino]-5-guanidino-pentanoylamino}-4-methyl-pentanoic acid amide] (H-Y[Sar]GFLRRL-NH2) | 738 nM |  | 
CN[C@@H](Cc1ccc(O)cc1)C(=O)NCC(=O)NCC(=O)N[C@@H](Cc1ccccc1)C(=O)N(C)[C@@H](CC(C)C)C(=O)N[C@@H](CCCNC(=N)N)C(=O)N[C@@H](CCCNC(=N)N)C(=O)N[C@H](CC(C)C)C(N)=O [2-{5-Guanidino-2-[5-guanidino-2-(2-{[2-(2-{2-[3-(4-hydroxy-phenyl)-2-methylamino-propionylamino]-acetylamino}-acetylamino)-3-phenyl-propionyl]-methyl-amino}-4-methyl-pentanoylamino)-pentanoylamino]-pentanoylamino}-4-methyl-pentanoic acid amide] | 189 nM |  | 
CN[C@@H](Cc1ccc(O)cc1)C(=O)NCC(=O)NCC(=O)N[C@@H](Cc1ccccc1)C(=O)N[C@@H](CC(C)C)C(=O)N(C)[C@@H](CCCN=C(N)N)C(=O)N[C@@H](CCCN=C(N)N)C(=O)N[C@H](CC(C)C)C(N)=O [2-{5-Guanidino-2-[5-guanidino-2-({2-[2-(2-{2-[3-(4-hydroxy-phenyl)-2-methylamino-propionylamino]-acetylamino}-acetylamino)-3-phenyl-propionylamino]-4-methyl-pentanoyl}-methyl-amino)-pentanoylamino]-pentanoylamino}-4-methyl-pentanoic acid amide] | 1.1 nM |  | 
CCNC(=O)[C@@H](CC(C)C)NC(=O)[C@H](CCCN=C(N)N)N(C)C(=O)[C@H](CCCN=C(N)N)NC(=O)[C@H](CC(C)C)NC(=O)[C@H](Cc1ccc([N+](=O)[O-])cc1)NC(=O)CNC(=O)CNC(=O)[C@H](Cc1ccc(O)cc1)NC [2-{5-Guanidino-2-[(5-guanidino-2-{2-[2-(2-{2-[3-(4-hydroxy-phenyl)-2-methylamino-propionylamino]-acetylamino}-acetylamino)-3-(4-nitro-phenyl)-propionylamino]-4-methyl-pentanoylamino}-pentanoyl)-methyl-amino]-pentanoylamino}-4-methyl-pentanoic acidN-ethyl amide] |  | 18 nM | 3.9 nM
CN[C@@H](Cc1ccc(O)cc1)C(=O)NCC(=O)NCC(=O)N[C@@H](Cc1ccccc1)C(=O)N[C@@H](CC(C)C)C(=O)N[C@@H](CCCNC(=N)N)C(=O)N(C)[C@@H](CCCNC(=N)N)C(=O)N[C@H](CC(C)C)C(N)=O [2-{5-Guanidino-2-[(5-guanidino-2-{2-[2-(2-{2-[3-(4-hydroxy-phenyl)-2-methylamino-propionylamino]-acetylamino}-acetylamino)-3-phenyl-propionylamino]-4-methyl-pentanoylamino}-pentanoyl)-methyl-amino]-pentanoylamino}-4-methyl-pentanoic acid amide] |  | 54 nM | 1.4 nM
CCNC(=O)[C@@H](CC(C)C)NC(=O)[C@H](CCCN=C(N)N)N(C)C(=O)[C@H](CCCN=C(N)N)NC(=O)[C@@H]1CSSC[C@@H](NC(=O)[C@@H](N)Cc2ccc(O)cc2)C(=O)NCC(=O)N[C@@H](Cc2ccccc2)C(=O)N1 [13-[2-Amino-3-(4-hydroxy-phenyl)-propionylamino]-7-benzyl-6,9,12-trioxo-1,2-dithia-5,8,11-triaza-cyclotetradecane-4-carboxylic acid (1-{[1-(1-ethylcarbamoyl-3-methyl-butylcarbamoyl)-4-guanidino-butyl]-methyl-carbamoyl}-4-guanidino-butyl)-amide] |  | 1.6 nM | 3 nM
